Data reported in US20240016781A1, “TREATMENT OF KRAS MUTANT CANCERS” (MEI Pharma, Inc., priority 2020, published 2024).
Where two headings read alike, the source gives them in different places.

Experiments:
Experiment in all cases: 72-hour CellTiter-Glo 2.0 growth inhibition screen (single agent, 9x9 combination dose matrix)
Format in all cases: cell-based
[1] = tested on: HPAF-II; conditions: HPAF-II, Pancreas, 72 h
[2] = tested on: SW48; conditions: SW48, Colorectal, 72 h
[3] = tested on: SW48 KRAS (G12C/+); conditions: SW48 KRAS (G12C/+), Colorectal, 72 h; for EC50: read-out: EC50
[4] = tested on: AsPC-1; conditions: AsPC-1, Pancreas, 72 h
[5] = tested on: LS-513; conditions: LS-513, Colorectal, 72 h
[6] = Additional Single Agent Responses (inhibition, % I)
[7] = Additional Single Agent Responses
[8] = growth inhibition (GI) curve, single agent
[9] = growth inhibition (GI), AUC, single agent
[10] = growth inhibition (GI), single agent

EC50 [2, 6]: 443 nM
IC50 [2, 6]: 526 nM
EC50 [2, 8]: 566 nM
GI50 [2, 8]: 422 nM
IC50 [3, 6]: 731 nM
EC50 [3, 6]: 591 nM
GI50 [3, 8]: 586 nM
EC50 [3, 8]: 719 nM
EC50 [4, 6]: 1330 nM
IC50 [4, 6]: 2320 nM
EC50 [4, 8]: 1350 nM
GI50 [4, 8]: 1340 nM
Compound: CN1CC[C@@H](c2c(O)cc(O)c3c(=O)cc(-c4ccc(C(F)(F)F)cc4Cl)oc23)[C@@H]1CO [MEI-522(Voruciclib)]
EC50 [1, 6]: 1310 nM
IC50 [1, 6]: 1880 nM
Response Area [1, 6]: 2.09
Max Response (% I) [1, 7]: 72 % I
EC50 [1, 8]: 1330 nM
GI50 [1, 8]: 1340 nM
Response Area [1, 9]: 2.84
Max Response (% GI) [1, 10]: 97 % GI
Response Area [2, 6]: 2.91
Max Response (% I) [2, 7]: 87 % I
Response Area [2, 9]: 4.44
Max Response (% GI) [2, 10]: 135 % GI
Response Area [3, 6]: 2.74
Max Response (% I) [3, 7]: 85 % I
Response Area [3, 9]: 3.67
Max Response (% GI) [3, 10]: 115 % GI
Response Area [4, 6]: 1.96
Max Response (% I) [4, 7]: 68 % I
Response Area [4, 9]: 2.86
Max Response (% GI) [4, 10]: 99 % GI
EC50 [5, 6]: 549 nM
IC50 [5, 6]: 633 nM
Response Area [5, 6]: 2.94
Max Response (% I) [5, 7]: 90 % I
EC50 [5, 8]: 878 nM
GI50 [5, 8]: 529 nM
Response Area [5, 9]: 4.51
Max Response (% GI) [5, 10]: 147 % GI
